ChEMBL document CHEMBL1151292, “Antineoplastic activity and cytotoxicity of flavones, isoflavones, and flavanones” (1979)
≈ marks a conversion by molar mass, not a printed value. Calls of active or inactive are those of the source. The rule behind the calls is not given here.

Tests used:
CCRF S-180 = test: In vivo antitumor activity against mouse S180 cells; type: functional, organism-based
L1210 = test: In vivo antitumor activity against mouse L1210 cells; type: functional, organism-based
CA-755 = test: In vivo antitumor activity against mouse CA-755 cells; type: functional, organism-based
KB = test: Cytotoxicity against human KB cells; type: functional; conditions: read-out: ED50 (the source's name)

Compound	Activity (CCRF S-180)	Activity (L1210)	Activity (CA-755)	EC50 (KB)
COc1ccc(-c2cc(=O)c3c(OC)c(O)c(OC)cc3o2)cc1	inactive	inactive	inactive	–
C[C@@H]1O[C@@H](OC[C@H]2O[C@@H](Oc3cc(O)c4c(c3)OC(c3ccc(O)cc3)CC4=O)[C@H](O)[C@@H](O)[C@@H]2O)[C@H](O)[C@H](O)[C@H]1O (some centres not stated)	inactive	–	–	–
COC1(O)C(=O)c2ccccc2OC1(OC)c1ccccc1 (configuration not stated)	–	inactive	–	34 µg/mL (≈ 113 µM)
O=C1c2cc(Cl)ccc2OC(Cl)(c2ccc(Cl)cc2)C1Cl (configuration not stated)	inactive	–	–	–
Cc1c(O)cc2c(c1O)C(=O)CC(c1ccc(O)cc1)O2 (configuration not stated)	–	inactive	–	57 µg/mL (≈ 199 µM)
COc1ccc(C2CC(=O)c3cc(OC)ccc3O2)cc1 (configuration not stated)	inactive	inactive	inactive	–
C[C@@H]1O[C@@H](OC[C@H]2O[C@@H](Oc3c(-c4ccc(O)c(O)c4)oc4cc(O)cc(O)c4c3=O)[C@H](O)[C@@H](O)[C@@H]2O)[C@H](O)[C@H](O)[C@H]1O.Cl	–	–	–	> 100 µg/mL
COc1cc(O)c2c(c1)OC(c1ccc(O)cc1)CC2=O (configuration not stated)	–	–	–	13 µg/mL (≈ 45.4 µM)
O=C1CC(c2cccc(Cl)c2)Oc2ccccc21 (configuration not stated)	inactive	inactive	Active	–
COc1c(O)cc2oc(-c3ccc(O)cc3)cc(=O)c2c1O [HISPIDULIN]	–	–	–	22 µg/mL (≈ 73.3 µM)
O=c1cc(-c2ccc(O)c(O)c2)oc2c([C@@H]3O[C@H](CO)[C@@H](O)[C@H](O)[C@H]3O)c(O)cc(O)c12 [ORIENTIN]	–	–	–	25 µg/mL (≈ 55.8 µM)
COc1ccc([C@@H]2CC(=O)c3c(O)cc(O)cc3O2)cc1O	inactive	inactive	inactive	–
O=c1cc(-c2ccc(O)cc2)oc2ccccc12	inactive	inactive	inactive	–
COc1cc2c(=O)cc(-c3ccc(O)c(O)c3)oc2cc1O	–	–	–	18 µg/mL (≈ 59.9 µM)
O=C1c2ccc(O)cc2OC(c2cc(O)c(O)c(O)c2)C1O (configuration not stated) [DIHYDROBINETIN]	inactive	inactive	inactive	23 µg/mL (≈ 75.6 µM)
O=C1C[C@@H](c2ccc(O)cc2)Oc2cc(O)cc(O)c21	inactive	inactive	–	–
COc1c(-c2ccc(O)c(O)c2)oc2cc(O)cc(O)c2c1=O [3-O-METHYLQUERCETIN]	–	–	–	17 µg/mL (≈ 53.8 µM)
COc1ccc(C2(OC)Oc3cc(OC)ccc3C(=O)C2(O)O)cc1 (configuration not stated)	–	–	–	2.8 µg/mL (≈ 8.08 µM)
COc1ccc(C2CC(=O)c3c(cc(OC)c(OC)c3OC)O2)cc1 (configuration not stated)	inactive	inactive	inactive	–
CS(=O)(=O)Nc1c(-c2ccccc2)oc2ccccc2c1=O	inactive	–	–	10 µg/mL (≈ 31.7 µM)
COc1ccc(C2CC(=O)c3ccccc3O2)cc1 (configuration not stated)	inactive	inactive	inactive	–
O=c1cc(-c2cccc(O)c2)oc2ccccc12	–	inactive	–	8.5 µg/mL (≈ 35.7 µM)
O=c1c(O)c(-c2ccc(O)c(O)c2)oc2cc(O[C@@H]3O[C@H](CO)[C@@H](O)[C@H](O)[C@H]3O)cc(O)c12 [QUERCIMERITRIN]	–	–	–	28 µg/mL (≈ 60.3 µM)
O=c1c(O)c(-c2ccccc2)oc2cc(O)cc(O)c12 [GALANGIN]	–	–	–	> 100 µg/mL
O=c1c(Cl)c(-c2ccccc2)oc2ccc(Cl)cc12	–	–	–	> 100 µg/mL
O=c1cc(-c2ccc(O)cc2)oc2cc(O[C@@H]3O[C@H](CO)[C@@H](O)[C@H](O)[C@H]3O)cc(O)c12 [APIGETRIN]	inactive	–	–	> 100 µg/mL

Compound	Activity (CCRF S-180)	Activity (L1210)	Activity (CA-755)	EC50 (KB)
O=C1C[C@@H](c2ccccc2)Oc2cc(O)cc(O)c21	inactive	inactive	inactive	–
Cc1ccc(C(C)C)c(-c2oc3ccc(Cl)cc3c(=O)c2Cl)c1	–	–	–	60 µg/mL (≈ 173 µM)
COc1cc(OC)c(-c2cc(=O)c3ccccc3o2)cc1Br	inactive	–	inactive	–
COc1cc2c(c(OC)c1O)C(=O)CC(c1ccc(O)cc1)O2 (configuration not stated)	inactive	inactive	inactive	–
COc1cc2c(c(OC)c1OC)C(=O)CC(c1ccc(O)cc1)O2 (configuration not stated)	inactive	inactive	inactive	–
O=c1cc(-c2ccccc2)oc2cc(F)ccc12 [7-FLUOROFLAVONE]	–	–	–	22 µg/mL (≈ 91.6 µM)
CS(=O)(=O)Oc1cccc(-c2cc(=O)c3ccccc3o2)c1	–	–	–	> 100 µg/mL
COc1ccc(C2CC(=O)c3ccccc3O2)cc1OC (configuration not stated)	inactive	inactive	inactive	–
COc1cc(O)c(C2CC(=O)c3c(O)cc(O[C@@H]4O[C@H](CO[C@@H]5O[C@@H](C)[C@H](O)[C@@H](O)[C@H]5O)[C@@H](O)[C@H](O)[C@H]4O)cc3O2)cc1O (some centres not stated)	–	inactive	–	> 100 µg/mL
Cc1c(-c2ccccc2)oc2c(C(=O)OCCN3CCCCC3)cccc2c1=O.Cl [FLAVOXATE HYDROCHLORIDE]	–	inactive	–	> 100 µg/mL
Cc1ccc(-c2oc3ccc(Cl)cc3c(=O)c2Cl)c(C(C)C)c1	–	–	–	22 µg/mL (≈ 63.4 µM)
O=C1c2ccccc2OC(c2ccccc2)C1Cl (configuration not stated)	inactive	–	inactive	–
O=c1cc(-c2ccccc2)oc2c(F)cc(F)cc12	inactive	inactive	–	15 µg/mL (≈ 58.1 µM)
COc1ccc2c(c1)C(=O)CC(c1ccccc1)O2 (configuration not stated)	Active	inactive	inactive	–
COc1ccc(C2CC(=O)c3c(cc(OC)c(O)c3OC)O2)cc1 (configuration not stated)	inactive	inactive	inactive	–
Cc1cc(C)c(-c2oc3ccc(Cl)cc3c(=O)c2Cl)c(C)c1	Active	–	–	> 100 µg/mL
Cc1ccc2oc(-c3ccccc3)c(Cl)c(=O)c2c1	–	–	–	> 100 µg/mL
O=C1CC(c2ccc(Cl)cc2)Oc2ccc(Cl)cc21 (configuration not stated)	inactive	inactive	inactive	–
C[C@@H]1O[C@@H](OC[C@H]2O[C@@H](Oc3c(-c4ccc(O)c(O)c4)oc4cc(O)cc(O)c4c3=O)[C@H](O)[C@@H](O)[C@@H]2O)[C@H](O)[C@H](O)[C@H]1O [RUTIN]	–	–	–	26 µg/mL (≈ 42.6 µM)
O=c1cc(-c2ccccc2)oc2ccccc12	inactive	inactive	inactive	–
O=c1c(Cl)c(-c2ccccc2O)oc2ccccc12	–	–	–	22 µg/mL (≈ 80.7 µM)
COc1ccc(-c2cc(=O)c3cc(OC)c(OC)cc3o2)cc1O	–	–	–	2 µg/mL (≈ 6.09 µM)
COc1cc(C2CC(=O)c3ccccc3O2)ccc1O (configuration not stated)	inactive	inactive	–	–
COC1(c2ccccc2)Oc2ccccc2C(=O)C1(O)O (configuration not stated)	–	–	–	19 µg/mL (≈ 66.4 µM)
COc1ccc(C2CC(=O)c3c(OC(C)=O)cc(OC(C)=O)cc3O2)cc1OC(C)=O (configuration not stated)	inactive	inactive	inactive	–
COc1ccc(-c2oc3cc(O)cc(O)c3c(=O)c2OC)cc1	inactive	inactive	Active	–

Compound	Activity (CCRF S-180)	Activity (L1210)	Activity (CA-755)	EC50 (KB)
COc1cc(O)c2c(=O)c(O)c(-c3ccc(O)c(O)c3)oc2c1	inactive	inactive	inactive	–
COc1ccc(C2Oc3ccccc3C(=O)C2N)cc1.Cl (configuration not stated)	inactive	–	–	> 100 µg/mL
COc1ccc([C@@H]2CC(=O)c3c(O)cc(O[C@@H]4O[C@H](CO[C@@H]5O[C@@H](C)[C@H](O)[C@@H](O)[C@H]5O)[C@@H](O)[C@H](O)[C@H]4O)cc3O2)cc1O	inactive	inactive	inactive	–
COc1cc2c(=O)cc(-c3ccc(OC)c(OC)c3)oc2cc1O	–	–	–	45 µg/mL (≈ 137 µM)
O=C1CC(c2ccc(Cl)cc2Cl)Oc2ccc(Cl)cc21 (configuration not stated)	inactive	inactive	inactive	–
COc1cc(O)c2c(=O)cc(-c3ccc(OC)c(O)c3)oc2c1	–	–	–	19 µg/mL (≈ 60.5 µM)
COc1c(OC)c(OC)c2c(=O)cc(-c3ccc(OC(C)C)cc3)oc2c1OC	–	–	–	> 100 µg/mL
COc1cc2c(c(O[C@@H]3O[C@H](CO)[C@@H](O)[C@H](O)[C@H]3O)c1)C(=O)CC(c1ccc(O)cc1)O2 (some centres not stated)	inactive	–	–	> 100 µg/mL
O=C1c2ccccc2OC(Cl)(c2ccccc2)C1Cl (configuration not stated)	inactive	inactive	inactive	–
O/N=c1/cc(-c2ccccc2)oc2ccccc12	inactive	inactive	–	–
COc1ccc2c(=O)c(C)c(-c3ccccc3)oc2c1CN(C)C.Cl [DIMEFLINE HYDROCHLORIDE]	–	inactive	–	22 µg/mL
COc1cc(OC)c2c(=O)c(OC)c(-c3ccc(OC)c(OC)c3)oc2c1	–	–	–	25 µg/mL (≈ 67.1 µM)
O=C1CC(c2ccccc2Cl)Oc2ccccc21 (configuration not stated)	inactive	inactive	inactive	–
CS(=O)(=O)NC1C(=O)c2ccccc2OC1c1ccccc1 (configuration not stated)	inactive	inactive	–	10 µg/mL (≈ 31.5 µM)
COc1ccc2c(=O)c(O)c(-c3ccccc3)oc2c1	–	–	–	26 µg/mL (≈ 96.9 µM)
COc1ccc2c(c1)OC(OC)(c1ccccc1)C(O)(O)C2=O (configuration not stated)	–	–	–	20 µg/mL (≈ 63.2 µM)
O=c1c(O)c(-c2cc(O)c(O)c(O)c2)oc2cc(O)ccc12 [ROBINETIN]	–	–	–	25 µg/mL (≈ 82.7 µM)
C=CCOc1ccc(-c2cc(=O)c3c(OC)c(OC)c(OC)c(OC)c3o2)cc1	–	–	–	26 µg/mL (≈ 65.3 µM)
COc1ccc(-c2oc3cc(O)cc(O)c3c(=O)c2O)cc1 [KAEMPFERIDE]	–	–	–	20 µg/mL (≈ 66.6 µM)
O=C1CC(c2ccccc2Cl)Oc2ccc(Cl)cc21 (configuration not stated)	inactive	inactive	inactive	–
COc1ccc(-c2oc3cc(OC(C)=O)cc(OC(C)=O)c3c(=O)c2OC)cc1	inactive	inactive	Active	–
O=C1CC(c2ccc(Cl)cc2)Oc2ccccc21 (configuration not stated)	inactive	inactive	inactive	–
O=c1c(O)c(-c2ccc(Cl)cc2)oc2cc(O)ccc12	inactive	inactive	–	–
CCOc1ccc(-c2cc(=O)c3c(OC)c(OC)c(OC)c(OC)c3o2)cc1	inactive	inactive	–	30 µg/mL (≈ 77.6 µM)
